Reference: US20240269073A1, “CO-AMORPHOUS FORMS FOR USE IN CANCER THERAPY” (Zerion Pharma APS, priority 2021, published 2024)
Values belong to the compound of their own block, whether it stands above or below them.

Tests used:
[1] = system: plasma proteins, primarily albumin; details: cited from earlier work
[2] = equivalent glucocorticoid dose; cited from earlier work
[3] = cited from earlier work
prostate cancer = details: cited from earlier work
high-risk mCSPC = details: cited from earlier work
[4] = Chemical compatibility of Olaparib with prednisolone on storage; assay type: physicochemical; details: Olaparib and Prednisolone combined, 1 month in sealed containers at 40° C. and 75% RH
Description: An experiment was carried out to determine whether Olaparib is chemically compatible with prednisolone, both alone and in the co-amorphous form.

[5] = cited from earlier work; remark: listed apart in the source
[6] = system: prostate cancer with mutations in DNA repair genes; details: cited from earlier work

SMILES: CC1(C)C(=O)N(c2ccc(C#N)c(C(F)(F)F)c2)C(=S)N1c1ccc(C(N)=O)c(F)c1 [N-desmethyl enzalutamide]
bound to plasma proteins [1]: 95%

SMILES: CC(=O)OCC(=O)[C@@]1(O)CC[C@H]2[C@@H]3CCC4=CC(=O)CC[C@]4(C)[C@H]3C(=O)C[C@@]21C [Cortisone acetate]
Equivalent amount [2]: 25 mg

SMILES: C[C@]12C=CC(=O)C=C1CC[C@H]1[C@@H]3C[C@@H](O)[C@](O)(C(=O)CO)[C@@]3(C)C[C@H](O)[C@@]12F [Triamcinolone]
Equivalent amount [2]: 4 mg

SMILES: CNC(=O)c1ccc(N2C(=S)N(c3ccc(C#N)c(C(F)(F)F)c3)C(=O)C2(C)C)cc1F [Enzalutamide, 4-[3-[4-cyano-3-(trifluoromethyl)phenyl]-5,5-dimethyl-4-oxo-2-sulfanylideneimidazolidin-1-yl]-2-fluoro-N-methylbenzamide]
water solubility [3]: less than 1 mg/mL

SMILES: CC(=O)O[C@H]1CC[C@@]2(C)C(=CC[C@@H]3[C@@H]2CC[C@]2(C)C(c4cccnc4)=CC[C@@H]32)C1 [Abiraterone acetate, [(3S,8R,9S,10R,13S,14S)-10,13-dimethyl-17-pyridin-3-yl-2,3,4,7,8,9,11,12,14,15-decahydro-1H-cyclopenta[a]phenanthren-3-yl] acetate]
HR for survival vs ADT-alone group (prostate cancer; P<0.001): 0.63
3-year survival rate (prostate cancer; in vivo): 83%
mOS (high-risk mCSPC; 1000 mg daily with prednisone 5 mg twice daily and GnRH agonist/antagonist): 53.3 months
mPFS (high-risk mCSPC; 1000 mg daily with prednisone and GnRH agonist/antagonist): 33.0 months
HR for mPFS vs placebo group (high-risk mCSPC; 95% CI, 0.39-0.55, P<0.001): 0.47
HR for mOS vs placebo arm (high-risk mCSPC; P<0.001): 0.62
water solubility [3]: less than 1 mg/mL

SMILES: C[C@]12CCC(=O)C=C1CC[C@@H]1[C@@H]2[C@@H](O)C[C@@]2(C)[C@H]1CC[C@]2(O)C(=O)CO [Hydrocortisone]
Equivalent amount [2]: 20 mg

SMILES: C[C@@H]1C[C@H]2[C@@H]3C[C@H](F)C4=CC(=O)C=C[C@]4(C)[C@H]3[C@@H](O)C[C@]2(C)[C@@]1(O)C(=O)CO [Paramethasone]
Equivalent amount [2]: 2 mg

Degradation on combined storage [4]: No degradations
SMILES: C[C@]12C=CC(=O)C=C1CC[C@@H]1[C@@H]2[C@@H](O)C[C@@]2(C)[C@H]1CC[C@]2(O)C(=O)CO [Prednisolone]
Equivalent amount [2]: 5 mg

Degradation on combined storage [4]: No degradations
SMILES: O=C(c1cc(Cc2n[nH]c(=O)c3ccccc23)ccc1F)N1CCN(C(=O)C2CC2)CC1 [Olaparib]
administered dose recovered ([5]; after 7 days, total): approximately 86%
administered dose found in urine ([5]; after 7 days): 44%
administered dose obtained in feces ([5]; after 7 days): 42%
AUC ([5]; after a dose of 200 mg): 25800 ng·h/mL
increase of AUC with constant administration ([5]; constant administration): 26%
time to peak concentration ([5]; following oral administration): 1 to 3 h
effect of high-fat diet on peak concentration ([5]; high-fat diet): does not have an effect in the peak concentration
effect of high-fat diet on tmax ([5]; high-fat diet): can decrease the tmax
unchanged form, share of the circulating dose ([5]; in vivo): 70%
median time lived without evidence of cancer getting worse ([6]; cohort A (BRCA1, BRCA2 or ATM alterations)): 7.4 months
improvement of survival versus control ([6]; cohort A, versus abiraterone or enzalutamide): more than 4 months
overall survival ([6]; cohort A): 19.1 months
tumor response (tumors shrink) ([6]; in vivo): 33%
water solubility [3]: about 0.06 mg/mL
